Like-named read-outs stand apart in the source and are kept apart here. Bridge positions count the residues as written; N and C are the ends. Square brackets hold non-standard residues; d marks the D form. Peptide text beside a SMILES is read from it. R8 = C=CCCCCCC[C@@](C)(N)C(=O)O; S5 = C=CCCC[C@](C)(N)C(=O)O
Columns and labels:
α-chymotrypsin = experiment: Protease stability experiment (α-chymotrypsin-mediated degradation); type: in vitro ADME; settings: for half-life at 25 µM: α-chymotrypsin 0.5 ng/μl in PBS pH 7.4 with 2 mM CaCl2, 50 μl peptide 1 mM in DMSO + 1,950 μl enzyme, 37°C, 0, 1, 2, 4, 8, 12 h, residual peptide by HPLC, read-out: t1/2 (h), hydrolysis enzyme degradation half-life (converted); for remaining at 12 h, 25 µM: read-out: peptide remaining intact after 12 h of protease exposure
Protocol: Protease Stability Experiment
Fifty microliters peptides in dimethyl sulfoxide (DMSO) (1 mM) and 1,950 μl α-chymotrypsin in phosphate-buffered saline (PBS) (0.5 ng/μl, pH 7.4, containing 2 mM CaCl2) were mixed and incubated at 37°C. After 0, 1, 2, 4, 8, and 12 h, the percent residual peptide was monitored by HPLC.

[1] = tested on: human lung tumor cell line A549; type: cell-based
Text: (§1) Cell Culture and Cell Viability Assay
(§2) The human prostate cancer cell line C4-2B was kindly provided and authenticated by Dr. Leland Chung (Cedars-Sinai Medical Center, Los Angeles, CA, USA). The human lung tumor cell line A549, the human breast tumor cell line MCF-7, and glioma cell line U87 were obtained from Shanghai Cellular Institute of Chinese Academy of Sciences (Shanghai, China). All cell lines were maintained in Dulbecco's modified Eagle's medium (DMEM) involving 10% fetal bovine serum (FBS) and 1% penicillin–streptomycin (PS) (complete DMEM) and was cultured at 37°C with humidified atmosphere of 5% CO2. Cell viability was examined using the cell counting kit (CCK-8) in accordance with manufacturer's protocol. Cells were seeded in 96-well culture plates at a density of 3 ×10^3 cells/well at 37°C for 24 h. Next day, cells were treated without or with various concentrations (0.39, 0.78, 1.56, 3.125, 6.25, 12.5, 25, and 50 μM) of peptides for 96 h after which 10 μl of CCK-8 reagent was added to each well and incubated for further 2 h at 37°C. The optical density (OD) was then measured at a wavelength of 450 nm on a Cell Imaging Multi-Mode Reader (BioTek, Vermont, USA), and the average OD values for each sample were analyzed using Image-J software (NIH, Bethesda, MD, USA). The half maximal inhibitory concentration (IC50) was calculated by GraphPad Prism v7.0 software (San Diego, CA, USA).

[2] = tested on: human prostate cancer cell line C4-2B; type: cell-based
Text: as §1, §2

[3] = tested on: human breast tumor cell line MCF-7; type: cell-based
Text: as §1, §2

glioma cell line U87 = type: cell-based
Text: as §1, §2

[4] = on-resin all-hydrocarbon stapling by ring-closing metathesis of S5/S5 (i,i+4) or R8/S5 (i,i+7), Grubbs first-generation catalyst (0.45 mmol per 0.15 mmol resin, 3 equiv), then TFA/TIPS/phenol/H2O cleavage and RP-HPLC; settings: the molecule shown is the open-chain precursor, 25.0 °C, 4.0 h, 36 steps
[5] = α-chymotrypsin 0.5 ng/μl in PBS pH 7.4 with 2 mM CaCl2, 37°C, 12 h, HPLC
[6] = CCK-8, 96 h treatment, 0.39-50 μM, OD 450 nm, read-out: IC50 (μM) A549
[7] = CCK-8, 96 h treatment, 0.39-50 μM, OD 450 nm, read-out: IC50 (μM) C4-2B
[8] = CCK-8, 96 h treatment, 0.39-50 μM, OD 450 nm, read-out: IC50 (μM) MCF-7
[9] = CCK-8, 96 h treatment, 0.39-50 μM, OD 450 nm, read-out: IC50 (μM) U87
[10] = 21-membered ring, 1,2-dichloroethane

Molecule	half-life at 25 µM (α-chymotrypsin) [h]	IC50 [1, 6] [µM]	IC50 [2, 7] [µM]	IC50 [3, 8] [µM]	IC50 (glioma cell line U87; [9]) [µM]	other results
Ac-GLFAVIKKVASVIKGL-NH2 [A4K14-citropin1.1, reference compound]	0.63	15	29.1	14.2	14.8	peptide remaining intact after 12 h of protease exposure (α-chymotrypsin; [5]): degraded completely
C=CCCCCCC[C@@](C)(NC(=O)CNC(C)=O)C(=O)N[C@@H](Cc1ccccc1)C(=O)N[C@@H](C)C(=O)N[C@H](C(=O)N[C@H](C(=O)N[C@@H](CCCCNC(=O)OC(C)(C)C)C(=O)N[C@@H](CCCCNC(=O)OC(C)(C)C)C(=O)N[C@@](C)(CCCC=C)C(=O)N[C@@H](C)C(=O)N[C@@H](COC(C)(C)C)C(=O)N[C@H](C(=O)N[C@H](C(=O)N[C@@H](CCCCNC(=O)OC(C)(C)C)C(=O)NCC(=O)N[C@@H](CC(C)C)C(N)=O)[C@@H](C)CC)C(C)C)[C@@H](C)CC)C(C)C						ring closure, overall yield ([4]; 33-membered ring, 1,2-dichloroethane): 63 % yield
CC[C@H](C)[C@@H]1NC(=O)[C@H](C(C)C)NC(=O)[C@H](C)NC(=O)[C@H](Cc2ccccc2)NC(=O)[C@](C)(NC(=O)CNC(C)=O)CCCCCCC=CCCC[C@@](C)(C(=O)N[C@@H](C)C(=O)N[C@@H](CO)C(=O)N[C@H](C(=O)N[C@H](C(=O)N[C@@H](CCCCN)C(=O)NCC(=O)N[C@@H](CC(C)C)C(N)=O)[C@@H](C)CC)C(C)C)NC(=O)[C@H](CCCCN)NC(=O)[C@H](CCCCN)NC1=O [A4K14-citropin1.1-6] (Ac-G[R8]FAVIKK[S5]ASVIKGL-NH2; staple 2-9)	0.57	30.2	35.8	23.8	34.5	
CC[C@H](C)[C@H](NC(=O)[C@@H](NC(=O)[C@H](CO)NC(=O)[C@H](C)NC(=O)[C@]1(C)CCCC=CCCC[C@](C)(NC(=O)[C@H](C)NC(=O)[C@H](Cc2ccccc2)NC(=O)[C@H](CC(C)C)NC(=O)CNC(C)=O)C(=O)N[C@@H]([C@@H](C)CC)C(=O)N[C@@H](CCCCN)C(=O)N[C@@H](CCCCN)C(=O)N1)C(C)C)C(=O)N[C@@H](CCCCN)C(=O)NCC(=O)N[C@@H](CC(C)C)C(N)=O [A4K14-citropin1.1-2] (Ac-GLFA[S5]IKK[S5]ASVIKGL-NH2; staple 5-9)	1.72					IC50 ([1]; 96 h): 12.6 µM; IC50 ([2]; 96 h): 10.1 µM; IC50 ([3]; 96 h): 12.7 µM; IC50 (glioma cell line U87; 96 h): 14.8 µM
C=CCCC[C@](C)(NC(=O)[C@H](CCCCNC(=O)OC(C)(C)C)NC(=O)[C@H](CCCCNC(=O)OC(C)(C)C)NC(=O)[C@@H](NC(=O)[C@@H](NC(=O)[C@H](C)NC(=O)[C@H](Cc1ccccc1)NC(=O)[C@H](CC(C)C)NC(=O)CNC(C)=O)C(C)C)[C@@H](C)CC)C(=O)N[C@@H](C)C(=O)N[C@@H](COC(C)(C)C)C(=O)N[C@H](C(=O)N[C@@](C)(CCCC=C)C(=O)N[C@@H](CCCCNC(=O)OC(C)(C)C)C(=O)NCC(=O)N[C@@H](CC(C)C)C(N)=O)C(C)C						ring closure, overall yield [4, 10]: 66 % yield
C=CCCC[C@](C)(NC(=O)[C@@H](NC(=O)[C@H](C)NC(=O)[C@H](Cc1ccccc1)NC(=O)[C@H](CC(C)C)NC(=O)CNC(C)=O)C(C)C)C(=O)N[C@@H](CCCCNC(=O)OC(C)(C)C)C(=O)N[C@@H](CCCCNC(=O)OC(C)(C)C)C(=O)N[C@H](C(=O)N[C@@](C)(CCCC=C)C(=O)N[C@@H](COC(C)(C)C)C(=O)N[C@H](C(=O)N[C@H](C(=O)N[C@@H](CCCCNC(=O)OC(C)(C)C)C(=O)NCC(=O)N[C@@H](CC(C)C)C(N)=O)[C@@H](C)CC)C(C)C)C(C)C						ring closure, overall yield [4, 10]: 71 % yield
C=CCCC[C@](C)(NC(=O)CNC(C)=O)C(=O)N[C@@H](Cc1ccccc1)C(=O)N[C@@H](C)C(=O)N[C@H](C(=O)N[C@@](C)(CCCC=C)C(=O)N[C@@H](CCCCNC(=O)OC(C)(C)C)C(=O)N[C@@H](CCCCNC(=O)OC(C)(C)C)C(=O)N[C@H](C(=O)N[C@@H](C)C(=O)N[C@@H](COC(C)(C)C)C(=O)N[C@H](C(=O)N[C@H](C(=O)N[C@@H](CCCCNC(=O)OC(C)(C)C)C(=O)NCC(=O)N[C@@H](CC(C)C)C(N)=O)[C@@H](C)CC)C(C)C)C(C)C)C(C)C						ring closure, overall yield [4, 10]: 63 % yield
CC[C@H](C)[C@H](NC(=O)[C@@H](NC(=O)[C@H](CO)NC(=O)[C@]1(C)CCCC=CCCC[C@](C)(NC(=O)[C@@H](NC(=O)[C@H](C)NC(=O)[C@H](Cc2ccccc2)NC(=O)[C@H](CC(C)C)NC(=O)CNC(C)=O)C(C)C)C(=O)N[C@@H](CCCCN)C(=O)N[C@@H](CCCCN)C(=O)N[C@@H](C(C)C)C(=O)N1)C(C)C)C(=O)N[C@@H](CCCCN)C(=O)NCC(=O)N[C@@H](CC(C)C)C(N)=O [A4K14-citropin1.1-3] (Ac-GLFAV[S5]KKV[S5]SVIKGL-NH2; staple 6-10)	0.61	12.1	17.9	11.9	11.9	
CC(=O)NCC(=O)N[C@@H](CC(C)C)C(=O)N[C@@H](Cc1ccccc1)C(=O)N[C@@H](C)C(=O)N[C@H](C(=O)N[C@]1(C)CCCCCCC=CCCC[C@@](C)(C(=O)N[C@@H](CCCCN)C(=O)NCC(=O)N[C@@H](CC(C)C)C(N)=O)NC(=O)[C@H](C(C)C)NC(=O)[C@H](CO)NC(=O)[C@H](C)NC(=O)[C@H](C(C)C)NC(=O)[C@H](CCCCN)NC(=O)[C@H](CCCCN)NC1=O)C(C)C [A4K14-citropin1.1-7] (Ac-GLFAV[R8]KKVASV[S5]KGL-NH2; staple 6-13)	0.58	16.4	10.2	12.1	14.7	
CC[C@H](C)[C@H](NC(=O)[C@@H](NC(=O)[C@H](C)NC(=O)[C@H](Cc1ccccc1)NC(=O)[C@H](CC(C)C)NC(=O)CNC(C)=O)C(C)C)C(=O)N[C@@H](CCCCN)C(=O)N[C@@H](CCCCN)C(=O)N[C@H](C(=O)N[C@@H](C)C(=O)N[C@@]1(C)CCCC=CCCC[C@@](C)(C(=O)N[C@@H](CC(C)C)C(N)=O)NC(=O)[C@H](CCCCN)NC(=O)[C@H]([C@@H](C)CC)NC(=O)[C@H](C(C)C)NC1=O)C(C)C [A4K14-citropin1.1-5] (Ac-GLFAVIKKVA[S5]VIK[S5]L-NH2; staple 11-15)	1.83	9.9	11.9	12.4	8.23	
CC[C@H](C)[C@H](NC(=O)[C@@H](NC(=O)[C@H](CO)NC(=O)[C@H](C)NC(=O)[C@@H](NC(=O)[C@H](CCCCN)NC(=O)[C@H](CCCCN)NC(=O)[C@]1(C)CCCC=CCCC[C@](C)(NC(=O)CNC(C)=O)C(=O)N[C@@H](Cc2ccccc2)C(=O)N[C@@H](C)C(=O)N[C@@H](C(C)C)C(=O)N1)C(C)C)C(C)C)C(=O)N[C@@H](CCCCN)C(=O)NCC(=O)N[C@@H](CC(C)C)C(N)=O [A4K14-citropin1.1-1] (Ac-G[S5]FAV[S5]KKVASVIKGL-NH2; staple 2-6)	> 10	12.5	8.94	11.3	11.9	remaining at 12 h, 25 µM (α-chymotrypsin; [5]): > 85%
CC[C@H](C)[C@H](NC(=O)[C@@H](NC(=O)[C@H](C)NC(=O)[C@H](Cc1ccccc1)NC(=O)[C@H](CC(C)C)NC(=O)CNC(C)=O)C(C)C)C(=O)N[C@@H](CCCCN)C(=O)N[C@@H](CCCCN)C(=O)N[C@@]1(C)CCCC=CCCC[C@@](C)(C(=O)N[C@@H](CCCCN)C(=O)NCC(=O)N[C@@H](CC(C)C)C(N)=O)NC(=O)[C@H](C(C)C)NC(=O)[C@H](CO)NC(=O)[C@H](C)NC1=O [A4K14-citropin1.1-4] (Ac-GLFAVIKK[S5]ASV[S5]KGL-NH2; staple 9-13)	> 10	10.5	8.9	10.5	7.28	remaining at 12 h, 25 µM (α-chymotrypsin; [5]): > 85%
